Data published in PubChem BioAssay (NCI).
“And” between values parts separate entries of the source, which are not always exact repeats. Equal entries are not always repeated.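 Tested at 5 concentrations; 48 h exposure; 96-well plates; endpoints linearly interpolated, else capped at highest concentration. GI50: concentration for 50% inhibition of growth. Definition used: TGI = concentration required for complete inhibition of growth.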

Experiments:
Experiment in all cases: NCI tumour cell line growth inhibition, 48 h
CCRF-CEM leukemia = tested on: CCRF-CEM leukemia
EKVX NSCLC = tested on: EKVX NSCLC
MCF7 breast = tested on: MCF7 breast
MOLT-4 leukemia = tested on: MOLT-4 leukemia
OVCAR-3 ovarian = tested on: OVCAR-3 ovarian
CAKI-1 renal = tested on: CAKI-1 renal
SK-MEL-2 melanoma = tested on: SK-MEL-2 melanoma
T-47D breast = tested on: T-47D breast
MDA-MB-231 breast = tested on: MDA-MB-231 breast
HOP-92 NSCLC = tested on: HOP-92 NSCLC

Structure (SMILES) | GI50 (CCRF-CEM leukemia) | TGI (CCRF-CEM leukemia) | GI50 (EKVX NSCLC) | TGI (EKVX NSCLC) | GI50 (MCF7 breast) | TGI (MCF7 breast) | GI50 (MOLT-4 leukemia) | TGI (MOLT-4 leukemia) | GI50 (OVCAR-3 ovarian) | TGI (OVCAR-3 ovarian) | GI50 (CAKI-1 renal) | TGI (CAKI-1 renal) | GI50 (SK-MEL-2 melanoma) | TGI (SK-MEL-2 melanoma) | GI50 (T-47D breast) | TGI (T-47D breast) | GI50 (MDA-MB-231 breast) | TGI (MDA-MB-231 breast) | GI50 (HOP-92 NSCLC) | TGI (HOP-92 NSCLC)
Cn1ccc(=Nc2ccc(NC(=O)c3ccc(N=c4ccn(C)c5ccc([N+](=O)[O-])cc45)cc3)cc2)cc1 | > 100 µM | > 100 µM | 55.1 µM | > 100 µM | 2.36 µM | > 100 µM | > 100 µM | > 100 µM | 15.2 µM | 78.7 µM | > 100 µM | > 100 µM | 79.1 µM | > 100 µM | 5.27 µM | > 100 µM | 6.82 µM | > 100 µM | 42.4 µM | > 100 µM
Nc1ccc(C#Cc2cncnc2Nc2ccc(OCc3cccc(F)c3)c(Cl)c2)cc1 | 5.72 µM | > 25 µM | 3.07 µM | > 25 µM | 11.9 µM | > 25 µM | 19.5 µM | > 25 µM | 8.87 µM | > 25 µM | 5.87 µM | > 25 µM | > 16.4 µM | > 25 µM | 6.17 µM | > 25 µM | 8.08 µM | > 25 µM | 10.6 µM | > 25 µM
COC(=O)[C@]12CC[C@@H](C)[C@H](C)[C@@H]1C1=CC[C@@H]3[C@@]4(C)C(C=O)=C[C@@](C)(COC(C)=O)[C@@H]4[C@H](O)C[C@@]3(C)[C@]1(C)CC2 | 1.98 µM | 7.01 µM | 2.76 µM | 10.2 µM | 1.94 µM | 5.51 µM | 1.34 µM | 5.02 µM | 1.82 µM | 3.34 µM | 2.72 µM | 12.3 µM | 2.61 µM | 6.15 µM | 2.75 µM | 14.2 µM | 2.27 µM | 5.41 µM | 1.65 µM | 4.28 µM
CO[C@H]1[C@H](O)[C@H](O[C@H]2CC[C@@]3(C)[C@H](CC[C@@H]4[C@@H]3CC[C@]3(C)[C@@H](C5=CC(=O)OC5)CC[C@]43O)C2)O[C@@H](C)[C@@H]1O | 0.000406 µM | 0.00107 µM |  | 0.00148 µM |  | 0.0288 µM |  | 0.00766 µM and < 0.0265 µM |  | 0.00116 µM |  | 0.00156 µM |  | 0.00476 µM and < 0.0175 µM | 0.00395 µM | 0.0194 µM |  | 0.00907 µM |  | 0.00571 µM and 0.0336 µM
O=C1c2ccccc2S(=O)(=O)N1CSC(=S)N1CCCC1 | 5.78 µM | > 100 µM | > 100 µM | > 100 µM | > 22.9 µM | > 100 µM | 8.3 µM | > 100 µM | > 25.6 µM | > 100 µM | > 100 µM | > 100 µM | > 100 µM | > 100 µM | > 72.4 µM | > 100 µM | > 100 µM | > 100 µM | > 100 µM | > 100 µM
COC(=O)c1ccccc1NC(=O)C(=O)CC(=O)c1ccccc1NC1=CC(=O)C(=O)c2ccccc21 |  | 33.9 µM |  | > 100 µM |  | 25.5 µM |  | 51.1 µM |  | 12.3 µM |  | 74.1 µM |  | 30.5 µM |  | > 95 µM |  | 23 µM |  | 32.5 µM
CC(CN)[C@@H]1CC[C@]2(CO)CC[C@]3(C)[C@H](CC[C@@H]4[C@@]5(C)CCC(NCCO)C(C)(C)[C@@H]5CC[C@]43C)[C@@H]12 (stereo not given in full) | 1.99 µM | 5 µM | 2.1 µM | 5.01 µM | 1.78 µM | 3.62 µM | 1.56 µM | 4.28 µM | 2.1 µM | 4.6 µM | 4.12 µM | 16.6 µM | 1.8 µM | 3.42 µM | 2.01 µM | 4.58 µM | 1.38 µM | 2.86 µM | 1.3 µM | 2.94 µM
O=C(O)CCC1COc2ccccc2O1 (stereo not given) |  | > 10 µM |  | > 10 µM |  | > 10 µM |  | > 10 µM |  | > 10 µM |  | > 10 µM |  | > 10 µM |  | > 10 µM |  | > 10 µM |  | > 10 µM
COc1cccc(/C=C/C(=O)c2ccc(Cl)cc2Cl)c1OC | 2.77 µM | 26.9 µM | 13.6 µM | 31.8 µM | 4.52 µM | 32 µM | 3.04 µM | 12.4 µM | 7.38 µM | 19.7 µM | 12.6 µM | 25.1 µM | 4.58 µM | 17.4 µM | 8.59 µM | 25.5 µM | 12.3 µM | 27.8 µM | 4.35 µM | 19.5 µM
CN1CCN(c2ccc(-c3cnc4c(-c5csc6ccccc56)cnn4c3)cc2)CC1 | 4.43 µM | > 15 µM | 9.79 µM | > 15 µM | 2.58 µM | > 15 µM | 4.1 µM | > 15 µM | 3.02 µM | 6.59 µM | 11.3 µM | > 15 µM | > 15 µM | > 15 µM | > 15 µM | > 15 µM | 4.88 µM | 14.7 µM | > 15 µM | > 15 µM
O=C1C(Cl)=C(Nc2ccc3cn[nH]c3c2)C(=O)c2ccccc21 | 1.52 µM | 3.91 µM | 1.5 µM | 4.6 µM | 1.09 µM | 2.58 µM | 1.47 µM | 4.15 µM | 1.08 µM | 2.27 µM | 1.47 µM | 2.78 µM | 1.71 µM | 3.54 µM | 1.24 µM | 3.27 µM | 1.41 µM | 2.73 µM | 1.57 µM | 3 µM
Cc1cc(O)c2c(c1)C(=O)c1cc(O)cc(O)c1C2=O |  | > 100 µM | 24.3 µM | > 100 µM | 27.7 µM | > 100 µM |  | > 100 µM | 14.7 µM | 42.2 µM |  | 52.9 µM |  | > 74.3 µM | 21.2 µM | > 100 µM | 16.1 µM | 57.5 µM |  | 56.8 µM
N#CC1C(=N)Cc2ccccc2-c2ccccc21 (stereo not given) | 4.42 µM | > 100 µM | 4.37 µM | > 100 µM | 4.2 µM | 80.1 µM | 5 µM | 43.4 µM | 3.6 µM | 13 µM | 3.21 µM | 24.2 µM | 12 µM | 28.7 µM | 5.61 µM | 73.3 µM | 8.88 µM | 35 µM | 10 µM | 36.6 µM
O=C1C=CC(=O)C1(Br)Br |  | 26.6 µM |  | 29.7 µM |  | 34.6 µM |  | > 100 µM |  | 31.4 µM |  | 11.4 µM |  | 31.4 µM |  | 51.6 µM |  | 23.1 µM |  | 40.9 µM
O=c1cccc(C#Cc2ccccc2)o1 |  | > 44 µM | 5.21 µM | 32.1 µM | 4.37 µM | > 100 µM | 2.77 µM |  | 2.42 µM | 11.1 µM | 5.05 µM | 15.3 µM | 4.71 µM | > 33.9 µM | 8.67 µM | 46 µM | 6.05 µM | 25.8 µM | 2.06 µM | 13.8 µM
COc1cc2cc(Oc3ccc(NC(=O)Nc4ccccc4)cc3)c(C)nc2cc1OCCN1CCCCC1 | 1.05 µM | 4.29 µM | 5.22 µM | 10.9 µM | 5.14 µM | 10 µM | 4.98 µM | 11.7 µM | 6.31 µM | 13.3 µM | 4.94 µM | 10 µM | 5.96 µM | 12.1 µM | 6.12 µM | 14.5 µM | 6.39 µM | 12.1 µM | 2.72 µM | 7.66 µM
